Results as given in EP3623369A1, “NOVEL MORPHOLINYL AMINE COMPOUNDS FOR THE TREATMENT OF AUTOIMMUNE DISEASE” (F. Hoffmann-La Roche AG, priority 2018, dated 2020).

The molecules below were run against T1, human TLR8 (Homo sapiens, UniProt Q9NR97) (assay: HEK293-Blue-hTLR-8 cells assay (SEAP reporter, R848 stimulation)). Conditions: HEK293-Blue-hTLR8 cells, R848, 20 hrs; 0.003 is the lowest tested concentration; read-out: HEK/hTLR8 IC50.
T1 sequence (Q9NR97 27-1041): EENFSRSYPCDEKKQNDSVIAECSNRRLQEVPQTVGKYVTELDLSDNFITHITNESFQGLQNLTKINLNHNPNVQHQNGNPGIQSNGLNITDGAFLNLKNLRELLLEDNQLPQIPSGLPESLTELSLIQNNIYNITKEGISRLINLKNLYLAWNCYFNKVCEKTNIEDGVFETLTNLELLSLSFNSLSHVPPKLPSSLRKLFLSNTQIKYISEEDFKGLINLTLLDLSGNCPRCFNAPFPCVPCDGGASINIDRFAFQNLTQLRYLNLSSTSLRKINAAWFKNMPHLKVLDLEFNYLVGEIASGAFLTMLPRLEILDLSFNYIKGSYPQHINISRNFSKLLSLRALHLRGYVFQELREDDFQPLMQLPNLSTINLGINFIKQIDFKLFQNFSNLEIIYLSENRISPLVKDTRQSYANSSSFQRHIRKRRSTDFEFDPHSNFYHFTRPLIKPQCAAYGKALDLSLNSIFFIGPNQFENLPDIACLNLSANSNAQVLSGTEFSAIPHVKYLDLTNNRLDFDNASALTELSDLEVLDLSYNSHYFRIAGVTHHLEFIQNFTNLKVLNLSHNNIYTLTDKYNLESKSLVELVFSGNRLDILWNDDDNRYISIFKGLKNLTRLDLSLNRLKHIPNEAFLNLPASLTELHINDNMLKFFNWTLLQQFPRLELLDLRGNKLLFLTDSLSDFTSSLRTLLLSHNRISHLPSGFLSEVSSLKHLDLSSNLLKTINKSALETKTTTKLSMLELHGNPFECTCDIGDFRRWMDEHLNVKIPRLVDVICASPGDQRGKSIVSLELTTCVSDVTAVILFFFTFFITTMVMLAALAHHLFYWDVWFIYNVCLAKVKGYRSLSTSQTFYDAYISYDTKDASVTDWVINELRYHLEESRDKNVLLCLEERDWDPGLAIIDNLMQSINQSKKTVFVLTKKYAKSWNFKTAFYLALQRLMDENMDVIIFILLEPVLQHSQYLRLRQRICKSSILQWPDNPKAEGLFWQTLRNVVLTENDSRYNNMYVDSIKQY
Assay type: cell-based
Method: The following tests were carried out in order to determine the activity of the compounds of formula (I) or (Ia) in HEK293-Blue-hTLR-7/8/9 cells assay.
HEK293-Blue-hTLR-8 cells assay:
A stable HEK293-Blue-hTLR-8 cell line was purchased from InvivoGen (Cat.#: hkb-htlr8, San Diego, California, USA). These cells were originally designed for studying the stimulation of human TLR8 by monitoring the activation of NF-κB. A SEAP (secreted embryonic alkaline phosphatase) reporter gene was placed under the control of the IFN-β minimal promoter fused to five NF-κB and AP-1-binding sites. The SEAP was induced by activating NF-κB and AP-1 via stimulating HEK-Blue hTLR8 cells with TLR8 ligands. Therefore the reporter expression was declined by TLR8 antagonist under the stimulation of a ligand, such as R848, for incubation of 20 hrs. The cell culture supernatant SEAP reporter activity was determined using QUANTI-Blue™ kit (Cat.#: rep-qb1, Invivogen, San Diego, Ca, USA) at a wavelength of 640 nm, a detection medium that turns purple or blue in the presence of alkaline phosphatase.
HEK293-Blue-hTLR8 cells were incubated at a density of 250,000∼450,000 cells/mL in a volume of 170 µL in a 96-well plate in Dulbecco's Modified Eagle's medium (DMEM) containing 4.5 g/L glucose, 50 U/mL penicillin, […], […], 2 mM L-glutamine, 10% (v/v) heat-inactivated fetal bovine serum with addition of 20 µL test compound in a serial dilution in the presence of final DMSO at 1% and 10 µL of 60uM R848 in above DMEM, perform incubation under 37 °C in a CO2 incubator for 20 hrs. Then 20 µL of the supernatant from each well was incubated with 180 µL Quanti-blue substrate solution at 37°C for 2 hrs and the absorbance was read at 620∼655 nm using a spectrophotometer. The signalling pathway that TLR8 activation leads to downstream NF-κB activation has been widely accepted, and therefore similar reporter assay was modified for evaluating TLR8 antagonist.

Structure (SMILES) | IC50 [nM]
C[C@@H]1CN(c2ccc(C#N)n3nccc23)C[C@H](CN2CCc3cnccc3C2)O1 [Example R1, 4-[(2S,6R)-2-(3,4-dihydro-1H-2,6-naphthyridin-2-ylmethyl)-6-methyl-morpholin-4-yl]pyrazolo[1,5-a]pyridine-7-carbonitrile, reference compound] | 118
C[C@@H]1CN(c2ccc(C#N)c3ncccc23)C[C@H](CN2Cc3ccc(N4CCNCC4)cc3C2)O1 [Example 21, 5-[(2R,6S)-2-methyl-6-[(5-piperazin-1-ylisoindolin-2-yl)methyl]morpholin-4-yl]quinoline-8-carbonitrile] | 5
C[C@@H]1CN(c2ccc(C#N)c3ncccc23)C[C@H](CN2Cc3ccc(N4CCN[C@@H](C)C4)cc3C2)O1 [Example 64, 5-[(2R,6S)-2-methyl-6-[[5-[(3S)-3-methylpiperazin-1-yl]isoindolin-2-yl]methyl]morpholin-4-yl]quinoline-8-carbonitrile] | 6
C[C@@H]1CN(c2ccc(C#N)c3nccnc23)C[C@H](CN2Cc3ccc(N4C5CCC4CNC5)cc3C2)O1 [Example 41, 8-[(2S,6R)-2-[[5-(3,8-diazabicyclo[3.2.1]octan-8-yl)isoindolin-2-yl]methyl]-6-methyl-morpholin-4-yl]quinoxaline-5-carbonitrile] | 9
C[C@@H]1CN(c2ccc(C#N)n3nccc23)C[C@H](CN2Cc3ccncc3C2)O1 [Example R2, 4-[(2S,6R)-2-(1,3-dihydropyrrolo[3,4-c]pyridin-2-ylmethy1)-6-methyl-morpholin-4-yl]pyrazolo[1,5-a]pyridine-7-carbonitrile, reference compound] | 784
C[C@@H]1CN(c2ccc(C#N)n3nccc23)C[C@H](CN2Cc3ccc(C4CCNC4)cc3C2)O1 (stereo partly drawn) [Example 9, 4-[(2R,6S)-2-methyl-6-[(5-pyrrolidin-3-ylisoindolin-2-yl)methyl]morpholin-4-yl]pyrazolo[1,5-a]pyridine-7-carbonitrile] | 90
C[C@@H]1CN(c2ccc(C#N)n3nccc23)C[C@H](CN2CCc3ccc(N4CCNCC4)cc3C2)O1 [Example 11, 4-[(2R,6S)-2-methyl-6-[(7-piperazin-1-yl-3,4-dihydro-1H-isoquinolin-2-yl)methyl]morpholin-4-yl]pyrazolo[1,5-a]pyridine-7-carbonitrile] | 229
COCCN1CCN(c2ccc3c(c2)CN(C[C@H]2CN(c4ccc(C#N)c5nccnc45)C[C@@H](C)O2)C3)CC1 [Example 37, 8-[(2S,6R)-2-[[5-[4-(2-methoxyethyl)piperazin-1-yl]isoindolin-2-yl]methyl]-6-methyl-morpholin-4-yl]quinoxaline-5-carbonitrile] | 9
C[C@@H]1CN(c2ccc(C#N)c3ncccc23)C[C@H](CNCc2ccccc2)O1 [ER-886509, reference compound] | 139
C[C@@H]1CN(c2ccc(Cl)c3ncccc23)C[C@H](CN2Cc3ccc(N4CCNCC4)cc3C2)O1 [Example 31, (2R,6S)-4-(8-chloro-5-quinolyl)-2-methyl-6-[(5-piperazin-1-ylisoindolin-2-yl)methyl]morpholine] | 13
CCOC(=O)C1CNCCN1c1ccc2c(c1)CN(C[C@H]1CN(c3ccc(C#N)c4ncccc34)C[C@@H](C)O1)C2 (stereo partly drawn) [Example 50, Ethyl 1-[2-[[(2S,6R)-4-(8-cyano-5-quinolyl)-6-methyl-morpholin-2-yl]methyl]isoindolin-5-yl] piperazine-2-carboxylate] | 33
C[C@@H]1CN(c2ccc(C#N)c3ncsc23)C[C@H](CN2Cc3cc(N4CCNCC4)cnc3C2)O1 [Example 25, 7-[(2R,6S)-2-methyl-6-[(3-piperazin-1-yl-5,7-dihydropyrrolo[3,4-b]pyridin-6-yl)methyl]morpholin-4-yl]-1,3-benzothiazole-4-carbonitrile] | < 3
C[C@@H]1CN(c2ccc(C#N)c3ncccc23)C[C@H](CN2CCc3cc(N4CCNCC4)ccc3C2)O1 [Example 19, 5-[(2R,6S)-2-methyl-6-[(6-piperazin-1-yl-3,4-dihydro-1H-isoquinolin-2-yl)methyl]morpholin-4-yl]quinoline-8-carbonitrile] | 6
C[C@@H]1CN(c2ccc(C#N)c3ncccc23)C[C@H](CN2Cc3ccc(N4CCNC[C@@H]4CO)cc3C2)O1 [Example 82, 5-[(2S,6R)-2-[[5-[(2R)-2-(hydroxymethyl)piperazin-1-yl]isoindolin-2-yl]methyl]-6-methyl-morpholin-4-yl]quinoline-8-carbonitrile] | 14

Next, values leading:

IC50 [nM] | Structure (SMILES)
< 3 | C[C@@H]1CN(c2ccc(C#N)c3ncccc23)C[C@H](CN2Cc3cc(N4CCN(C)CC4)cc(F)c3C2)O1 [Example 69, 5-[(2S,6R)-2-[[4-fluoro-6-(4-methylpiperazin-1-yl)isoindolin-2-yl]methyl]-6-methyl-morpholin-4-yl]quinoline-8-carbonitrile]
< 3 | C[C@@H]1CN(c2ccc(C#N)c3nccnc23)C[C@H](CN2Cc3cnc(N4CCNCC4)cc3C2)O1 [Example 60, 8-[(2R,6S)-2-methyl-6-[(6-piperazin-1-yl-1,3-dihydropyrrolo[3,4-c]pyridin-2-yl)methyl]morpholin-4-yl]quinoxaline-5-carbonitrile]
< 3 | C[C@@H]1CN(c2ccc3c(c2)CN(C[C@H]2CN(c4ccc(C#N)c5nccnc45)C[C@@H](C)O2)C3)CCN1 [Example 65, 8-[(2R,6S)-2-methyl-6-[[5-[(3R)-3-methylpiperazin-1-yl]isoindolin-2-yl]methyl]morpholin-4-yl] quinoxaline-5-carbonitrile]
< 3 | C[C@@H]1CN(c2ccc(C#N)c3ncccc23)C[C@H](CN2Cc3cnc(N4CCNCC4)cc3C2)O1 [Example 61, 5-[(2R,6S)-2-methyl-6-[(6-piperazin-1-yl-1,3-dihydropyrrolo[3,4-c]pyridin-2-yl)methyl]morpholin-4-yl]quinoline-8-carbonitrile]
< 3 | C[C@@H]1CN(c2ccc(C#N)c3ncccc23)C[C@H](CN2Cc3cc(N4CCNCC4)cc(F)c3C2)O1 [Example 59, 5-[(2S,6R)-2-[(4-fluoro-6-piperazin-1-yl-isoindolin-2-yl)methyl]-6-methyl-morpholin-4-yl]quinoline-8-carbonitrile]
< 3 | C[C@@H]1CN(c2ccc(C#N)c3ncccc23)C[C@H](CN2Cc3ccc(N4CCNCC4)nc3C2)O1 [Example 80, 5-[(2R,6S)-2-methyl-6-[(2-piperazin-1-yl-5,7-dihydropyrrolo[3,4-b]pyridin-6-yl)methyl]morpholin-4-yl]quinoline-8-carbonitrile]
< 3 | C[C@@H]1CN(c2ccc(C#N)c3ncccc23)C[C@H](CN2Cc3ccc(CN4CCCCC4)cc3C2)O1 [Example 74, 5-[(2R,6S)-2-methyl-6-[[5-(1-piperidylmethyl)isoindolin-2-yl]methyl]morpholin-4-yl]quinoline-8-carbonitrile]
< 3 | C[C@@H]1CN(c2ccc(C#N)c3nccnc23)C[C@H](CN2Cc3ccc(N4CCN[C@@H](C)C4)cc3C2)O1 [Example 66, 8-[(2R,6S)-2-methyl-6-[[5-[(3S)-3-methylpiperazin-1-yl]isoindolin-2-yl]methyl]morpholin-4-yl]quinoxaline-5-carbonitrile]
